Experimental data published in patent publication US9399032B2, “Methods and compositions for treating degenerative and ischemic disorders” (The General Hospital Corporation, priority 2009, dated 2016).
Structures can show the parent of a compound that is named as a salt.

Tests used:
GLS expressing 293 cells = assay: OCR in 293 cells with forced GLS expression; format: cell-based; settings: 50 μM
Experimental: FIG. 14B presents exemplary data showing OCR measurements on FACS sorted control (LacZ) or GLS expressing cells following DMSO or 50 μM meclizine addition at time 0 min (n=4).
Glutaminase full length cDNA (Open Biosystems, Accession #BCO38507) was amplified using proof-reading TAQ polymerase (Accuprime, Invitrogen) with primers which included attb1 and attb2 sites for subsequent subcloning into pDONR 221 vector (Invitrogen). Partial Kozak sequence was included in the 5′ primer and stop codon was eliminated in the 3′ primer. The sequences of forward (F) and reverse primers (R) are—5′-GGGGACAAGTTTGTACAAAAAAGCAGGCTCCACCATGATGCGGCTGCGAGGCTC-3′ (SEQ ID NO: 2); and 5′-GGGGACCACTTTGTACAAGAAAGCTGGGTCCAACAATCCATCAAGATTCT-3′ (SEQ ID NO: 3), respectively. Resulting PCR fragment was cloned into Gateway entry vector pDONR 221 (Invitrogen) with BP clonase using STBL2 E. coli competent cells (Invitrogen). Subsequently, it was subcloned into destination vector pcDNA6.2-EMGFP-DEST with LR clonase and was sequenced verified. The 293 cells were transfected with the pcDNA6.2-GLS-GFP and the control vector pcDNA6.2-LacZ-GFP using Fugene (Roche) reagent. GLS expression was confirmed by Western blot using anti-GLS antibody. FACS sorted transfected cells were subjected to meclizine treatment followed by OCR and ECAR measurements.

[1] = system: primary cortical neurons isolated from mouse embryos; assay: OCR in primary cortical neurons; format: cell-based; settings: 5 and 10 μM
Experimental: Oxygen consumption rate (OCR) measurements following meclizine (5 and 10 μM) or antimycin (1 μM) addition at time 0 (min) in mouse primary cortical neurons obtained from day E14-15 embryos. Data are expressed as mean+/−SD (n≧3).
Meclizine was confirmed to shift a cell's relative reliance on OXPHOS versus glycolysis by whole cell bioenergetic kinetic assays. […] This was true in primary cardiomyocytes isolated from rat heart (FIG. 3K) and primary cortical neurons isolated from mouse embryos (FIG. 3L). Cardiomyocytes were exposed to the indicated concentration of meclizine for 20 min followed by oxygen measurement in a respiration chamber. Oxygen consumption rate (OCR) measurements were made following meclizine (5 and 10 μM) or antimycin (1 μM) addition at time 0 (min) in mouse primary cortical neurons obtained from day E14-15 embryos.

[2] = Blood glucose levels in R6 mice; format: in vivo
MCH58 fibroblasts = assay: Glucose versus galactose cell growth screen (metabolic state-dependent lethality); settings: approximately 10 μM compound, 72 hours; log10 fold change of normalized cell number in glucose versus galactose
Experimental: The assay included monitoring or measuring cell growth in cells that are grown in glucose (which allows the cell to utilize glycolysis) or in galactose (which switches the cell energy production from glycolysis to the OXPHOS pathway).
The high glucose medium was replaced with 10 mM glucose or 10 mM galactose wherever indicated. All media contained 1 mM pyruvate and 4 mM glutamine.
Cell number quantification high throughput assays were performed as follows. […] 24 hours later, cells were washed twice in PBS and media was replaced with either 10 mM glucose or 10 mM galactose containing media.
Approximately 100 nL of each compound was pin-transferred in duplicate into the plates with a steel pin array using the CyBi-Well robot (CyBio). […] Compound-treated plates were incubated at 37° C. for 72 hours. […] Wells were then washed once and stored in PBS. Cell culture plates were stored at 4° C. until time of imaging, which was at most 24 hours after fixation.
Imaging was performed by Arrayscan VTi automated microscope (ThermoFisher Scientific) with the use of an automated plate stacker. Appropriate filter sets for the detection of the Hoescht fluorescent signal were used. Four non-overlapping images at 5× magnification (NA 0.25) were acquired for a field of view of 1.3 mm×1.3 mm per image. The plate stacker and microscope including an auto-focusing algorithm were controlled entirely with ArrayScan software. Images were captured and stored simultaneously in at least two independent locations. Image analysis was performed using the freely available open-source software package CellProfiler. […] Images were analyzed individually by first identifying nuclei using the Hoescht staining signal.
Total number of nuclei per field were recorded, and the four images per well were totaled to give the cell count per well. Computation was performed using a UNIX computer cluster. Appropriate masking of each nucleus was ensured by visually monitoring each batch at its onset and intermittently throughout the run.
The fibroblast cells were seeded on Day 0 and incubated for 24 hours in standard culture media.
Normalized cell counts were computed separately for each 96-well plate by dividing the cell count of each well with the trimmed mean (the average after discarding the largest and smallest value) of the cell counts for the 16 DMSO treated wells. […] The remaining replicate measurements were averaged, and fold changes were computed as the ratio between the average normalized counts for the glucose and galactose screens. To evaluate statistical significance, Z-scores were computed for each well against the DMSO (null) distribution and averaged Z-scores across replicates. Wells with average Z-score greater than 2.5 were considered significant.
By jointly analyzing the glucose and galactose results, a glucose-galactose cell growth ratio can be calculated (Sglu/gal) that represents the log10 fold-change in cell growth in a glucose rich media divided by the log10 fold-change in cell growth in a galactose rich media. […] Low Sglu/gal scores (e.g., ranging between approximately (−) 0.1 to (−) 0.7) may arise from inhibition of glycolysis or from inhibition of proliferation, since cells grown in glucose-rich media divide more rapidly.

[3] = system: Mitochondria isolated from C57BL/6 mouse kidneys; assay: Bioenergetics of isolated mitochondria; format: biochemical; settings: acute addition
Experimental: Mootha et al., Am J Physiol 272:[…] (1997). State 2 respiration was initiated with the addition of 2.5 mM glutamate and 2.5 mM malate. State 3 respiration was initiated with the addition of 50 nmoles ADP. Uncoupled respiration was initiated with the addition of 5 μM CCCP (Sigma Cat No C2759). O2 consumption was monitored with a Fiber Optic Oxygen sensor probe from Ocean Optics, and NADH (endogenous, 370±7 nm excitation, 440±4 nm emission) and membrane potential (1.25 μM TMRM, 546±7 nm excitation, 590±4 nm emission) were measured with a Perkin-Elmer LS50B fluorimeter. A representative trace is shown from 6 independent experiments. 1M stock of phosphoethanolamine (Sigma P0503) was made in sterile water and pH was adjusted to 7.4 by 1N potassium hydroxide solution.

[4] = system: purified recombinant PCYT2; assay: PCYT2 enzyme assay in vitro; format: biochemical; settings: 50-1000 μM meclizine or 50-600 μM S-meclizine
Experimental: FIGS. 16 C-D are line graphs showing that PCYT2 (CTP:phosphoethanolamine cytidylyltransferase 2) is a target of meclizine (16C) and S-meclizine (16D). PCYT2 enzyme assays were carried out in vitro with purified recombinant PCYT2 in the presence of 50-1000 μM meclizine or 50-600 μM of S-meclizine.
CTP:Phosphoethanolamine Cytidylyltransferase (PCYT2) catalyzes the formation of CDP-ethanolamine, which is often the rate regulatory step in the PE-Kennedy pathway. See, e.g., Fullerton et al., J Biol Chem 18; 284(38):25704-13 (2009). To determine whether meclizine affects PCYT2 activity, PCYT2 (CTP:phosphoethanolamine cytidylyltransferase 2) enzyme assays were carried out in vitro with purified recombinant PCYT2 in the presence of 50-1000 μM meclizine or 50-600 μM of S-meclizine. For additional details see Zhu et al., J Lipid Res 49: 2197 (2008).

[5] = system: C. elegans expressing 128Q huntingtin fragment in touch receptor neurons; format: in vivo
Experimental: Meclizine was also tested in an animal model of Huntington's disease. Transgenic C. elegans touch receptor neurons express an N-terminal fragment of huntingtin (htt) comprising 128 glutamine repeats, as opposed to seventeen glutamine repeats in the wild type protein. These neurons show polyQ-dependent neuronal dysfunction resulting in defective posterior mechanosensation. Parker et al., Nat Genet 37:349 (2005) Animals co-expressing YFP and N-terminal htt fused to CFP in touch receptor neurons were used for drug testing. See, eg., Parker et al., Proc Natl Acad Sci USA 98:13318 (2001). Synchronized L1 larvae, obtained by hypochlorite extraction, were incubated with drugs in 96 wells plates in 50 μl M9 medium with OP-50 bacteria and […] streptomycin, at 20° C. during 3 days as previously described. Three independent assays were performed and a minimum of 100 worms were tested per dose.
Worms were treated with DMSO or 33 μM meclizine for 3 days. Animals were considered as touch responsive if they reacted after light touch (e.g., by initiating a backward movement). Out of 3 touches, 2 or 3 reactions were regarded as responsive, and 0 or 1 reaction was regarded as unresponsive. Htt aggregation and axonal morphology in PLM neurons were scored using light microscopy as previously described (Parker et al., Proc Natl Acad Sci USA 98:13318 (2001)). Htt aggregation was scored using CFP fluorescence, axonal dystrophy was quantified using YFP fluorescence to detect axonal swelling.
Protein quantity was normalized using an anti-actin antibody (MP Biochemicals 69100).

male C57BL/6 mice = assay: Murine model of stroke (transient middle cerebral artery occlusion); format: in vivo, mouse

Cc1cccc(CN2CCN(C(c3ccccc3)c3ccc(Cl)cc3)CC2)c1 (racemic) [Meclizine, meclizine hydrochloride]
oxygen consumption with constitutive GLS expression (GLS expressing 293 cells): continued to suppress oxygen consumption
respiration (OCR) in primary cortical neurons [1]: inhibits respiration
blood glucose levels [2]: reduces blood glucose levels
Sglu/gal (log10 fold change) Score (MCH58 fibroblasts): 0.16
mitochondrial oxygen consumption in isolated mitochondria [3]: had no effect
PCYT2 binding and inhibition [4]: binD to, and inhibit
PolyQ protein aggregation ([5]; 33.33 μM): no effects
transgenic protein expression (worms) ([5]; 33.33 μM): no changes were observed
axonal swelling ([5]; 33.33 μM, PLM neurons): reduced
sensory response to tail poke ([5]; mutant PolyQ animals, 3 days): improved the sensory response to tail poke in a dose dependent manner
concentration of optimal response ([5]; touch response): 33.33 µM
CBF (cerebral blood flow) (male C57BL/6 mice; 100 mg/kg i.p.): did not differ significantly
infarct volume (brain) (male C57BL/6 mice; two intraperitoneal injections of 100 mg/kg at 17 and 3 hours before ischemia): significantly lower
